Tests used:
[1] = target: T1, recombinant soluble rat CD73 (Rattus norvegicus, UniProt P21588); experiment: Radiometric rat ecto-5′-nucleotidase (CD73) assay with [3H]AMP
T1 sequence (P21588 29-551 limits assumed): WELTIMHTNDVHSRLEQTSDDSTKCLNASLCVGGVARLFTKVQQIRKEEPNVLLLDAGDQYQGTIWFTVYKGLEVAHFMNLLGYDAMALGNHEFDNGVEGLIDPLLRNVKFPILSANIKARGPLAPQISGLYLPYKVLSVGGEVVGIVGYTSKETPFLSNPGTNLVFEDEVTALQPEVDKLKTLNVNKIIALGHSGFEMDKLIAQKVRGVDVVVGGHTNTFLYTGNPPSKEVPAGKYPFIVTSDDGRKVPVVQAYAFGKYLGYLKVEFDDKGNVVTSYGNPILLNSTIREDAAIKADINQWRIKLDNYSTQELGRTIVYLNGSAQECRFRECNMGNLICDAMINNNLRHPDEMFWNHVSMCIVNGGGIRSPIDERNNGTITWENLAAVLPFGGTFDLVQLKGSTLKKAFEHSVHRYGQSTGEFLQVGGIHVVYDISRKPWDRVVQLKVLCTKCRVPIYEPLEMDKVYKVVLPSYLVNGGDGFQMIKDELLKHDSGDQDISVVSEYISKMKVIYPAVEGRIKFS
Experimental: After the enzymatic reaction, the substrate was separated from its product [2,8-^3H]adenosine by precipitation with lanthanum chloride followed by filtration through glass fiber filters (34). […] Ki values were calculated from the obtained IC50 values using the Cheng-Prusoff equation (6,7).
The assay was performed as previously described (41) using recombinant rat CD73 expressed in Sf9 insect cells (33). […] The mixture was incubated for 25 min at 37° C. The reaction was stopped by adding 500 μL of ice-cooled precipitation buffer containing 100 mM aqueous lanthanum chloride and 100 mM aqueous sodium acetate solution (pH 4.0). After 30 min, the precipitation was filtered through GF/B glass fiber filters (M-48, Brandel, Gaithersburg, Md., USA). After washing three times, 4 mL of the scintillation cocktail ULTIMA Gold XR was added and then quantified by scintillation counting (TRICARB 2900 TR, Packard/PerkinElmer). Three separate inhibition assays were performed in triplicate, concentration-response curves were fitted, and Ki values were calculated.
The assay was performed essentially as previously described.^D Stock solutions (10 mM) of the compounds were prepared in demineralized water and further dilutions were performed in assay reaction buffer (25 mM Tris, 140 mM sodium chloride, 25 mM sodium dihydrogen phosphate, pH 7.4). 10 μL of the inhibitor solution were added to 70 μL of assay reaction buffer. […] The enzymatic reaction was performed for 25 min at 37° C. in a shaking water bath. […] After the precipitation was completed (after at least 30 min on ice), the mixture was separated by filtration through GF/B glass fiber filters using a cell harvester (M-48, Brandel, Gaitherburg, Md., USA). After washing each reaction vial three times with 400 μl of cold (4° C.) demineralized water, 5 ml of the scintillation cocktail (ULTIMA Gold XR, PerkinElmer, MA, USA) was added and radioactivity was measured by scintillation counting (TRICARB 2900 TR, Packard/PerkinElmer; counting efficacy: 49-52%). Two controls were included and measured as duplicates. One reaction was performed without the inhibitor resulting in 100% enzyme activity (positive control) and one was incubated without the inhibitor and the enzyme and served as background control. The resulting data were subtracted from the background and were normalized with to the positive control. The results were plotted, and concentration-inhibition curves were fitted with GraphPad Prism 5 (GraphPad Software, La Jolla, USA).
After 30 min, the precipitation was filtered through GF/B glass fiber filters (M-48, Brandel, Gaithersburg, Md., USA). After washing three times, 4 mL of the scintillation cocktail ULTIMA Gold XR was added and then quantified by scintillation counting (TRICARB 2900 TR, Packard/PerkinElmer). Three separate inhibition assays were performed in triplicate, concentration-response curves were fitted, and K, values were calculated.

human P2Y6 receptor = target: T2, human P2Y6 receptor (Homo sapiens, UniProt Q15077); experiment: Human P2Y6 receptor assay, calcium mobilization in 1321N1 astrocytoma cells; assay type: cell-based; details: 1321N1 cells expressing human P2Y6, read-out: hP2Y6 EC50 ± SEM
T2 construct: expressed in transfected cells; host or cells: 1321N1 human astrocytoma cells
T2 sequence (Q15077 whole entry): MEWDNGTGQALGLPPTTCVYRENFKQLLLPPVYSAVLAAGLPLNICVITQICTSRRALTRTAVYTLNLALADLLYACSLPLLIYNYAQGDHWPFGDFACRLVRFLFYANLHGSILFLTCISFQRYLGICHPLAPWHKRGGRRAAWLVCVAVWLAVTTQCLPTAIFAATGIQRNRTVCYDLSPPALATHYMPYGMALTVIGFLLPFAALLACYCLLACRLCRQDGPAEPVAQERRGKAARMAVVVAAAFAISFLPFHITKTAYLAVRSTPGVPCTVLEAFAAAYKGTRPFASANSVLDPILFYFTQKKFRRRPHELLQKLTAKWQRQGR
Experimental: Calcium mobilization induced by the nucleotide derivatives was measured in a human astrocytoma cell line (1321N1) expressing the human P2Y6 receptor, as previously described (33).

human P2Y14 receptor = target: T3, human P2Y14 receptor (Homo sapiens, UniProt Q15391); experiment: Human P2Y14 receptor assay, inhibition of binding of a fluorescent antagonist, flow cytometry in CHO cells; details: CHO cells expressing human P2Y14, read-out: hP2Y14 IC50 ± SEM
T3 construct: expressed in transfected cells; host or cells: CHO cells
T3 sequence (Q15391 1-338): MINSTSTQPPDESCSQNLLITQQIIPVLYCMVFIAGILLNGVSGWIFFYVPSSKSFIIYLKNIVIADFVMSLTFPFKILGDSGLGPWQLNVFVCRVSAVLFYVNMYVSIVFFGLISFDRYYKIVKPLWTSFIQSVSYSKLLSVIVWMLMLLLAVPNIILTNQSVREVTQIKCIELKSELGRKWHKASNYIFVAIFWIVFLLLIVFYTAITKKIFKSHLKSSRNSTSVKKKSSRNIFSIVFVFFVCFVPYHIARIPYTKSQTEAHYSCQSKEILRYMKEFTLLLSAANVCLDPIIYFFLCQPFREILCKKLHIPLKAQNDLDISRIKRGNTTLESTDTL
Experimental: Inhibition of binding of a high affinity fluorescent antagonist was measured using flow cytometry in a CHO cell line expressing the human P2Y14 receptor, as previously described (34).

[2] = test system: recombinant soluble human CD73; experiment: Radiometric CD73 inhibition assay, recombinant soluble human CD73; assay type: biochemical; details: human vs rat CD73 Ki, Table 5
Experimental: The cDNA for the soluble human CD73 (Genbank accession no. NM_002526) was obtained from Prof. Dr. Norbert Sträter (University of Leipzig, Germany) (3). […] Sf9 insect cells were grown in Insect-[…] media (#: BE12-[…], Lonza, Switzerland) with 10 mg/l gentamicin and split at a ratio of 1:3 every fourth day. For transfection, cells were seeded into cell culture flasks (25 cm^2) at 60-70% confluence. 100 μl of cell medium and 1 μl of the vector DNA (1000 ng/μ1) were mixed with 2.5 μl of baculovirus genomic ProEasyTM vector DNA (AB vector, CA, USA) and combined with premixed 100 μl of cell medium and 8 μl of CellfectinTM II Reagent (Thermo Fisher Scientific, MA, USA). […] The cells were incubated for 30 min at rt, and for further 4 days at 27° C. Cells from the transfection procedure were detached from the bottom of the flasks and centrifuged for 5 min at 2000 g. 1.5 ml of the supernatant (viral stock) was added to 75 cm^2 cell culture flasks containing Sf9 cells (60-70% confluence), and the cells were incubated for four days at 27° C. Then 1.5 ml of the supernatant were taken and added to uninfected Sf9 cells in a 75 cm^2 flask. This was repeated five more times, using more cells and larger flasks after the third round of infections (150 cm^2 to which 3.0 ml of supernatant were added). The stock P8 was finally used for infection of the cells. For protein expression, 3 ml of the virus solution were used to infect 150 ml of cell media containing 2×10^6 cells/ml in a 500 ml Erlenmeyer flask, and they were incubated for 4 days at 27° C. with shaking (150 rpm). Then, cell suspensions were transferred to 50 ml falcon tubes and centrifuged at 15 min at 5000 g at 4° C. The supernatants were subjected to ultrafiltration using Amicon® Ultra-15, 10 kDa cut-off (Merck Millipore, MA, USA) at 5000 g for 15-30 min at 4° C. The concentrated protein was purified with HisPurTM Ni^2+-NTA spin columns (#: 88226, Thermo Fisher Scientific, MA, USA). The elution of the columns was performed as recommended in the instruction manual with adjusting the incubation time for protein binding to 1 h at 4° C. with an end-over-end mixer and an additional incubation step of 5 min with the elution buffer before eluting. Eluates were pooled and dialyzed (Membra-Cer, 14 kDa cut-off, 250 mm×44 mm×0.02 mm; Carl Roth, Germany) at 4° C. in 25 mM Tris, pH 7.4, with a volume adjusted to 40 times the volume of the elution fraction. […] The enzyme was aliquoted and stored at -80° C. until use.

[3] = target: T4, membrane-bound CD73 (membrane preparation of MDA-MB-231 cells) (Homo sapiens, UniProt P21589); experiment: Radiometric CD73 inhibition assay, membrane preparations of MDA-MB-231 cells
T4 sequence (P21589 27-549): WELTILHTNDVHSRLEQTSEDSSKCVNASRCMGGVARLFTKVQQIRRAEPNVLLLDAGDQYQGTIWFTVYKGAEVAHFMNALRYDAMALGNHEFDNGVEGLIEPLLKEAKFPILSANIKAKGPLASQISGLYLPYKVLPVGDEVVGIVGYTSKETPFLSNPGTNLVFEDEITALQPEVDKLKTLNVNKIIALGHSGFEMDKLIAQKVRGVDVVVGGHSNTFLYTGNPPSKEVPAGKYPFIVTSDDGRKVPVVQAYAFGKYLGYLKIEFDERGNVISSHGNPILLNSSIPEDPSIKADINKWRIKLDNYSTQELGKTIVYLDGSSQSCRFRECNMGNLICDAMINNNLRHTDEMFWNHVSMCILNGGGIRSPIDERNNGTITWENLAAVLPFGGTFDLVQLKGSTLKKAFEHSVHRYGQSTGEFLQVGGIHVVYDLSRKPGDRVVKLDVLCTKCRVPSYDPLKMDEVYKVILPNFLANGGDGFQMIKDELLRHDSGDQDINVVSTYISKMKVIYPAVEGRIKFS
Experimental: After the enzymatic reaction, the substrate was separated from its product [2,8-^3H]adenosine by precipitation with lanthanum chloride followed by filtration through glass fiber filters (34). For compounds that inhibited CD73 activity by more than 50% at an initial screening concentration of 1 μM, full concentration-response curves were determined in at least three separate experiments performed in duplicates using 10 different concentrations of inhibitor. Ki values were calculated from the obtained IC50 values using the Cheng-Prusoff equation (6,7). […]
The assay was performed essentially as previously described.^D Stock solutions (10 mM) of the compounds were prepared in demineralized water and further dilutions were performed in assay reaction buffer (25 mM Tris, 140 mM sodium chloride, 25 mM sodium dihydrogen phosphate, pH 7.4). […] After washing each reaction vial three times with 400 μl of cold (4° C.) demineralized water, 5 ml of the scintillation cocktail (ULTIMA Gold XR, PerkinElmer, MA, USA) was added and radioactivity was measured by scintillation counting (TRICARB 2900 TR, Packard/PerkinElmer; counting efficacy: 49-52%). Two controls were included and measured as duplicates. […]

[4] = target: T5, CD73 in human tonsillary tissue (Homo sapiens, UniProt P21589); experiment: Human tonsillar CD73-mediated AMPase activity in tonsil cryosections; assay type: biochemical; details: 1, 10, and 100 nM; mean pixel intensity, FIG. 10
T5 construct: Palatine tonsils were obtained from adult patients with chronic tonsillitis; from tissue; host or cells: human palatine tonsil cryosections
T5 sequence (P21589 27-549): T4 sequence (P21589 27-549)
Experimental: Palatine tonsils were obtained from adult patients with chronic tonsillitis undergoing routine tonsillectory. The tonsils were washed with phisiological salt solution, embedded in the cyro-mold with Tissue-Tek O.C.T. compound (Sakura Finetek Europe B.V., the Nethelands), cut using a cryostat and stored at −80° C. Tonsil cryoselctions were preincubated for 30 min in Trizma maleate sucrose buffer supplemented with the alkaline phosphatase inhibitor levamisole and different concentrations of compound 9h. The enzymatic reaction was then performed for 45 min at 37° C. in a final volume of […] of TMSB-buffered substrate solution containing Pb (NO3)2, CaCl2, and tested CD73 inhibitor at the same concentration. The lead orthophosphate precipitated in the course of nucleotidase activity was visualized as a brown deposit by incubating sections in (NH3)2S for 30s, followed by three washed in Trizma-maleate buffer for 5 min each. Slides were mounted with Aquatex medium (Merck, Germany). Multiple images of adjacent tissue areas were captured using a slide scanner and further stitched to a larger overview. The images of control and treated tissues were captured at identical exposure times and other settings and further acquired in parallel. Nucleotidase activities were quantified as mean pixel intensities after grayscale conversion.

**Q.** What does the source list for `Cn1c(=O)n([C@@H]2O[C@H](COP(=O)(O)CP(=O)(O)O)[C@@H](O)[C@H]2O)cc/c1=N/OCc1ccccc1` [Compound 9h, N^4-[O-(4-Benzyloxy)]-3-methyl-cytidine-5′-O-[(phosphonomethyl)phosphonic acid]]?
**A.** Ki [1]: 0.00367 µM; EC50 (human P2Y6 receptor): > 3000 µM; IC50 (human P2Y14 receptor): > 3000 µM; potency at human CD73 as compared to the rat enzyme [2]: somewhat less potent; Ki [3]: 0.00796 µM; inhibition of the catalytic activity of CD73 in human tonsillary tissue [4]: inhibited the catalytic activity of CD73 in a concentration-dependent manner

Reference: US20210169911A1, “PURINE AND PYRIMIDINE NUCLEOTIDES AS ECTO-5'-NUCLEOTIDASE INHIBITORS” (The United States of America,as represented by the …, priority 2018, published 2021)
